Publication PMC5218480 (PLoS ONE, 2017)

Tested on: MV-4-11 cells
Experiment: Gene expression microarray analysis (Affymetrix PrimeView) and GSEA
Format: cell-based, human
Set-up: RFU PODN (11730768_x_at) / Fold change /veh PODN (11730768_x_at) / RFU LINC00158 (11744669_a_at) / Fold change /veh LINC00158 (11744669_a_at) / RFU DUSP10 (11751237_a_at) / Fold change /veh DUSP10 (11751237_a_at) / RFU ID3 (11757404_x_at) / Fold change /veh ID3 (11757404_x_at) / RFU PLEKHG5 (11737974_s_at) / Fold change /veh PLEKHG5 (11737974_s_at) / RFU LRRC4B (11730491_at) / Fold change /veh LRRC4B (11730491_at) / RFU GIMAP4 (11747438_a_at) / Fold change /veh GIMAP4 (11747438_a_at) / RFU KRT8 (11758183_x_at) / Fold change /veh KRT8 (11758183_x_at) / RFU CNN1 (11734310_a_at) / Fold change /veh CNN1 (11734310_a_at) / RFU VPS37D (11726825_at) / Fold change /veh VPS37D (11726825_at) / RFU C10orf10 (11716522_x_at) / Fold change /veh C10orf10 (11716522_x_at) / RFU KIR2DL2 /// KIR2DL4 /// KIR2DL5A /// KIR2DL5B /// KIR2DS1 /// KIR2DS2 /// KIR2DS3 /// KIR2DS4 /// KIR3DL3 /// KIR3DL3 /// KIR3DS1 (11738374_at) / Fold change /veh KIR2DL2 /// KIR2DL4 /// KIR2DL5A /// KIR2DL5B /// KIR2DS1 /// KIR2DS2 /// KIR2DS3 /// KIR2DS4 /// KIR3DL3 /// KIR3DL3 /// KIR3DS1 (11738374_at) / RFU C1QL1 (11718748_at) / Fold change /veh C1QL1 (11718748_at) / RFU TMPRSS4 (11747572_a_at) / Fold change /veh TMPRSS4 (11747572_a_at) / RFU HAMP (11756126_x_at) / Fold change /veh HAMP (11756126_x_at) / RFU RNFT2 (11725882_a_at) / Fold change /veh RNFT2 (11725882_a_at) / RFU NR4A2 (11747474_a_at) / Fold change /veh NR4A2 (11747474_a_at) / RFU ABCC12 (11746883_a_at) / Fold change /veh ABCC12 (11746883_a_at) / RFU TMEM136 (11760407_x_at) / Fold change /veh TMEM136 (11760407_x_at) / RFU CLDN22 /// WWC2 (11732394_at) / Fold change /veh CLDN22 /// WWC2 (11732394_at) / RFU HLA-DPB1 (11760878_x_at) / Fold change /veh HLA-DPB1 (11760878_x_at) / RFU SPINT1 (11716480_a_at) / Fold change /veh SPINT1 (11716480_a_at) / RFU GAP43 (11754022_s_at) / Fold change /veh GAP43 (11754022_s_at) / RFU A4GNT (11735810_at) / Fold change /veh A4GNT (11735810_at) / RFU PRB3 (11715151_x_at) / Fold change /veh PRB3 (11715151_x_at) / RFU TUBB4B (11761932_at) / Fold change /veh TUBB4B (11761932_at) / RFU CAPN14 (11732068_a_at) / Fold change /veh CAPN14 (11732068_a_at) / RFU TMCC2 (11721928_a_at) / Fold change /veh TMCC2 (11721928_a_at) / RFU IRGQ (11745062_a_at) / Fold change /veh IRGQ (11745062_a_at) / RFU FAM174B (11720279_a_at) / Fold change /veh FAM174B (11720279_a_at) / RFU TMPRSS4 (11748680_a_at) / Fold change /veh TMPRSS4 (11748680_a_at) / RFU FAM212B (11763350_a_at) / Fold change /veh FAM212B (11763350_a_at) / RFU PLEKHG5 (11743358_a_at) / Fold change /veh PLEKHG5 (11743358_a_at) / RFU ZSCAN30 (11745921_a_at) / Fold change /veh ZSCAN30 (11745921_a_at) / RFU CMKLR1 (11741424_a_at) / Fold change /veh CMKLR1 (11741424_a_at) / RFU LOC101060620 /// MAPK8IP1 (11723275_at) / Fold change /veh LOC101060620 /// MAPK8IP1 (11723275_at) / RFU SPTSSB (11747773_x_at) / Fold change /veh SPTSSB (11747773_x_at) / RFU PRSS12 (11739890_at) / Fold change /veh PRSS12 (11739890_at) / RFU BIN1 (11741810_x_at) / Fold change /veh BIN1 (11741810_x_at) / RFU WNT11 (11732464_a_at) / Fold change /veh WNT11 (11732464_a_at) / RFU C10orf10 (11716521_a_at) / Fold change /veh C10orf10 (11716521_a_at) / RFU C5orf56 (11738089_at) / Fold change /veh C5orf56 (11738089_at) / RFU CYB561 (11721691_x_at) / Fold change /veh CYB561 (11721691_x_at) / RFU ANKRD19P (11752326_a_at) / Fold change /veh ANKRD19P (11752326_a_at) / RFU OR2T12 /// OR2T33 /// OR2T8 (11738714_s_at) / Fold change /veh OR2T12 /// OR2T33 /// OR2T8 (11738714_s_at) / RFU VCAN (11748164_a_at) / Fold change /veh VCAN (11748164_a_at) / RFU JSRP1 (11732532_at) / Fold change /veh JSRP1 (11732532_at) / RFU KRTAP10-11 (11738290_x_at) / Fold change /veh KRTAP10-11 (11738290_x_at) / RFU MYO3A (11730013_a_at) / Fold change /veh MYO3A (11730013_a_at) / RFU EBF3 (11725865_a_at) / Fold change /veh EBF3 (11725865_a_at) / RFU CAMK2N1 (11719241_x_at) / Fold change /veh CAMK2N1 (11719241_x_at) / RFU C5orf56 (11738088_a_at) / Fold change /veh C5orf56 (11738088_a_at) / RFU OLFML3 (11715873_a_at) / Fold change /veh OLFML3 (11715873_a_at) / RFU LOC100653217 /// NTM (11731650_a_at) / Fold change /veh LOC100653217 /// NTM (11731650_a_at) / RFU MAPK11 (11762145_a_at) / Fold change /veh MAPK11 (11762145_a_at) / RFU FIZ1 (11724087_x_at) / Fold change /veh FIZ1 (11724087_x_at) / RFU OASL (11726364_x_at) / Fold change /veh OASL (11726364_x_at) / RFU SOX15 (11748057_x_at) / Fold change /veh SOX15 (11748057_x_at) / RFU CD79A (11719716_a_at) / Fold change /veh CD79A (11719716_a_at) / RFU HIST1H1D (11736915_at) / Fold change /veh HIST1H1D (11736915_at) / RFU CASKIN2 (11723855_a_at) / Fold change /veh CASKIN2 (11723855_a_at) / RFU LOC730098 (11760151_x_at) / Fold change /veh LOC730098 (11760151_x_at) / RFU OR4N2 (11742367_at) / Fold change /veh OR4N2 (11742367_at) / RFU PRRT2 (11749266_a_at) / Fold change /veh PRRT2 (11749266_a_at) / RFU SNX32 (11753110_a_at) / Fold change /veh SNX32 (11753110_a_at) / RFU CDHR5 (11726645_a_at) / Fold change /veh CDHR5 (11726645_a_at) / RFU RCAN1 (11760418_a_at) / Fold change /veh RCAN1 (11760418_a_at) / RFU FAM167A (11723789_a_at) / Fold change /veh FAM167A (11723789_a_at) / RFU FAM26E (11764081_at) / Fold change /veh FAM26E (11764081_at) / RFU ISYNA1 (11749810_s_at) / Fold change /veh ISYNA1 (11749810_s_at) / RFU ACY1 (11761880_at) / Fold change /veh ACY1 (11761880_at) / RFU 11764098_at / Fold change /veh 11764098_at / RFU SAMD14 (11745864_x_at) / Fold change /veh SAMD14 (11745864_x_at) / RFU NPB (11741838_a_at) / Fold change /veh NPB (11741838_a_at) / RFU TMPRSS6 (11731388_a_at) / Fold change /veh TMPRSS6 (11731388_a_at) / RFU KRTAP10-2 (11738614_at) / Fold change /veh KRTAP10-2 (11738614_at) / RFU ARHGAP8 /// PRR5-ARHGAP8 (11727945_x_at) / Fold change /veh ARHGAP8 /// PRR5-ARHGAP8 (11727945_x_at) / RFU KRTAP5-7 /// NADSYN1 (11734609_at) / Fold change /veh KRTAP5-7 /// NADSYN1 (11734609_at) / RFU RASL12 (11751679_a_at) / Fold change /veh RASL12 (11751679_a_at) / RFU CDKN2B (11736163_a_at) / Fold change /veh CDKN2B (11736163_a_at) / RFU PRF1 (11729649_at) / Fold change /veh PRF1 (11729649_at) / RFU, ZNF638 /// ZNF638-IT1 / Fold change vs veh, ZNF638 /// ZNF638-IT1 / RFU, PANK3 / Fold change vs veh, PANK3 / RFU, SH3YL1 / Fold change vs veh, SH3YL1 / RFU, ZEB2 / Fold change vs veh, ZEB2 / RFU, NRIP1 / Fold change vs veh, NRIP1 / RFU, PTTG1IP / Fold change vs veh, PTTG1IP / RFU, CAPN2 / Fold change vs veh, CAPN2 / RFU, MED14 / Fold change vs veh, MED14 / RFU, SNORA58 / Fold change vs veh, SNORA58 / RFU, C1orf63 / Fold change vs veh, C1orf63 / RFU, LRRFIP1 / Fold change vs veh, LRRFIP1 / RFU, NDUFAF7 / Fold change vs veh, NDUFAF7 / RFU, SLC12A2 / Fold change vs veh, SLC12A2 / RFU, IBTK / Fold change vs veh, IBTK / RFU, ESF1 / Fold change vs veh, ESF1 / Fold change vs veh, TMEM50B / RFU, TAOK1 / Fold change vs veh, TAOK1 / RFU, ACBD3 / Fold change vs veh, ACBD3 / RFU, TMA16 / Fold change vs veh, TMA16 / RFU, RWDD3 / Fold change vs veh, RWDD3 / RFU, BCAT1 / Fold change vs veh, BCAT1 / RFU, EDEM3 / Fold change vs veh, EDEM3 / RFU, TMEM33 / Fold change vs veh, TMEM33 / RFU, WDR75 / Fold change vs veh, WDR75 / RFU, AHCTF1 / Fold change vs veh, AHCTF1 / RFU, TFRC / Fold change vs veh, TFRC / RFU, ZDHHC17 / Fold change vs veh, ZDHHC17 / RFU, NOM1 / Fold change vs veh, NOM1 / RFU, ARL8B / Fold change vs veh, ARL8B / RFU, ZBTB11 / Fold change vs veh, ZBTB11 / RFU, TAMM41 / Fold change vs veh, TAMM41 / RFU, KIAA1704 /// LOC100996395 / Fold change vs veh, KIAA1704 /// LOC100996395 / RFU, ING1 / Fold change vs veh, ING1 / RFU, TRMT61B / Fold change vs veh, TRMT61B / RFU, FUBP3 / Fold change vs veh, FUBP3 / RFU, TP53 / Fold change vs veh, TP53 / RFU, TNKS2 / Fold change vs veh, TNKS2 / RFU, ZFP14 / Fold change vs veh, ZFP14 / RFU, ACTR2 / Fold change vs veh, ACTR2 / RFU, PPP3R1 / Fold change vs veh, PPP3R1 / RFU, PIK3R1 / Fold change vs veh, PIK3R1 / RFU, HNRNPA1 / Fold change vs veh, HNRNPA1 / RFU, RNF170 / Fold change vs veh, RNF170 / RFU, ZNF28 / Fold change vs veh, ZNF28 / RFU, RNGTT / Fold change vs veh, RNGTT / RFU, OGT / Fold change vs veh, OGT / RFU, BRD1 / Fold change vs veh, BRD1 / RFU, MARS / Fold change vs veh, MARS / RFU, ZNF655 / Fold change vs veh, ZNF655 / RFU, FAHD1 / Fold change vs veh, FAHD1 / RFU, BDP1 / Fold change vs veh, BDP1 / RFU, LRRCC1 / Fold change vs veh, LRRCC1 / RFU, ARID1A / Fold change vs veh, ARID1A / RFU, ZNF146 / Fold change vs veh, ZNF146 / RFU, ZNF330 / Fold change vs veh, ZNF330 / RFU, GPN3 / Fold change vs veh, GPN3 / RFU, C9orf123 / Fold change vs veh, C9orf123 / RFU, N4BP2L2 / Fold change vs veh, N4BP2L2 / RFU, ARFIP1 / Fold change vs veh, ARFIP1 / RFU, FAM179B / Fold change vs veh, FAM179B / RFU, BCL10 / Fold change vs veh, BCL10 / RFU, UHRF1BP1L / Fold change vs veh, UHRF1BP1L / RFU, BET1 / Fold change vs veh, BET1 / RFU, CNOT2 / Fold change vs veh, CNOT2 / RFU, ZNF268 / Fold change vs veh, ZNF268 / Fold change vs veh, ZNF507 / RFU, DGCR2 / Fold change vs veh, DGCR2 / RFU, WDSUB1 / Fold change vs veh, WDSUB1 / Fold change vs veh, HSP90B1 /// MIR3652 / RFU, ADSS / Fold change vs veh, ADSS / RFU, GK / Fold change vs veh, GK / RFU, ZNF148 / Fold change vs veh, ZNF148 / RFU, TAF9 / Fold change vs veh, TAF9 / RFU, SLC1A5 / Fold change vs veh, SLC1A5 / RFU, SLMO2 / Fold change vs veh, SLMO2 / RFU, ABCC4 / Fold change vs veh, ABCC4 / RFU, LOC101060439 /// RAP1B / Fold change vs veh, LOC101060439 /// RAP1B / RFU, RFX7 / Fold change vs veh, RFX7 / RFU, GTPBP10 / Fold change vs veh, GTPBP10 / RFU, CNEP1R1 / Fold change vs veh, CNEP1R1 / RFU, BIVM-ERCC5 /// ERCC5 / Fold change vs veh, BIVM-ERCC5 /// ERCC5 / RFU, ILF3 / Fold change vs veh, ILF3 / RFU 11762660_at / Fold change /veh 11762660_at / RFU VCAN (11757783_s_at) / Fold change /veh VCAN (11757783_s_at) / RFU DDX43 (11728927_at) / Fold change /veh DDX43 (11728927_at) / RFU KRT8 (11758188_x_at) / Fold change /veh KRT8 (11758188_x_at) / RFU NKD1 (11759106_at) / Fold change /veh NKD1 (11759106_at) / RFU SRD5A1 (11742802_a_at) / Fold change /veh SRD5A1 (11742802_a_at) / RFU TPSAB1 /// TPSB2 (11721975_s_at) / Fold change /veh TPSAB1 /// TPSB2 (11721975_s_at) / RFU GSTM3 (11746129_a_at) / Fold change /veh GSTM3 (11746129_a_at) / RFU IL23R (11737362_x_at) / Fold change /veh IL23R (11737362_x_at) / RFU TMEM51 (11727254_a_at) / Fold change /veh TMEM51 (11727254_a_at) / RFU PIWIL2 (11732686_x_at) / Fold change /veh PIWIL2 (11732686_x_at) / RFU ORM1 (11744905_x_at) / Fold change /veh ORM1 (11744905_x_at) / RFU CCDC152 (11743942_at) / Fold change /veh CCDC152 (11743942_at) / RFU ECM1 (11717891_a_at) / Fold change /veh ECM1 (11717891_a_at) / RFU IL23R (11748794_a_at) / Fold change /veh IL23R (11748794_a_at) / RFU TNFAIP8L3 (11732012_x_at) / Fold change /veh TNFAIP8L3 (11732012_x_at) / RFU MBOAT4 (11741988_at) / Fold change /veh MBOAT4 (11741988_at) / RFU 11764193_at / Fold change /veh 11764193_at / RFU TMEM53 (11763286_at) / Fold change /veh TMEM53 (11763286_at) / RFU MAGEB2 (11727129_at) / Fold change /veh MAGEB2 (11727129_at) / RFU TMEM200A (11744735_a_at) / Fold change /veh TMEM200A (11744735_a_at) / RFU CCDC152 (11751479_a_at) / Fold change /veh CCDC152 (11751479_a_at) / RFU FAM211A (11726209_a_at) / Fold change /veh FAM211A (11726209_a_at) / RFU RGS16 (11746705_a_at) / Fold change /veh RGS16 (11746705_a_at) / RFU VCAN (11755009_s_at) / Fold change /veh VCAN (11755009_s_at) / RFU RHOB (11743442_s_at) / Fold change /veh RHOB (11743442_s_at) / RFU RGS16 (11720943_a_at) / Fold change /veh RGS16 (11720943_a_at) / RFU RGS16 (11720944_at) / Fold change /veh RGS16 (11720944_at) / RFU, VPS4B / Fold change vs veh, VPS4B / RFU, CREB1 / Fold change vs veh, CREB1 / RFU, DNAJC13 / Fold change vs veh, DNAJC13 / RFU, GNAQ / Fold change vs veh, GNAQ / RFU, CDK5R1 / Fold change vs veh, CDK5R1 / RFU, ZRANB3 / Fold change vs veh, ZRANB3 / RFU, CUL4A / Fold change vs veh, CUL4A / RFU, CCNY / Fold change vs veh, CCNY / RFU, UFL1 / Fold change vs veh, UFL1 / RFU, COG3 / Fold change vs veh, COG3 / RFU, DIAPH2 / Fold change vs veh, DIAPH2 / RFU, SKA2 / Fold change vs veh, SKA2 / RFU, AFF3 / Fold change vs veh, AFF3 / RFU, LMF1 / Fold change vs veh, LMF1 / RFU, IPO11 / Fold change vs veh, IPO11 / RFU, DFFB / Fold change vs veh, DFFB / RFU, FOXP1 / Fold change vs veh, FOXP1 / RFU, CARD8 / Fold change vs veh, CARD8 / RFU, STRN3 / Fold change vs veh, STRN3 / RFU, ADK / Fold change vs veh, ADK / RFU, RASSF2 / Fold change vs veh, RASSF2 / RFU, WIPF1 / Fold change vs veh, WIPF1 / RFU, LARP1B / Fold change vs veh, LARP1B / RFU, RASA1 / Fold change vs veh, RASA1 / RFU, RB1 / Fold change vs veh, RB1 / RFU, PPFIA1 / Fold change vs veh, PPFIA1 / RFU, MAT2A / Fold change vs veh, MAT2A / RFU, CCT5 / Fold change vs veh, CCT5 / RFU, WDR92 / Fold change vs veh, WDR92 / RFU, CUX1 / Fold change vs veh, CUX1 / RFU, TTC7A / Fold change vs veh, TTC7A / RFU, TMEM135 / Fold change vs veh, TMEM135 / RFU, DEPTOR / Fold change vs veh, DEPTOR / RFU, CPM / Fold change vs veh, CPM / RFU, DNAJB6 / Fold change vs veh, DNAJB6 / RFU, CACNA2D3 / Fold change vs veh, CACNA2D3 / RFU, DTX4 / Fold change vs veh, DTX4 / RFU, TFCP2 / Fold change vs veh, TFCP2 / RFU, GMCL1 /// GMCL1P1 / Fold change vs veh, GMCL1 /// GMCL1P1 / RFU, AEBP2 / Fold change vs veh, AEBP2 / RFU, SNHG1 /// SNORD22 /// SNORD25 /// SNORD26 /// SNORD27 /// SNORD28 /// SNORD29 /// SNORD31 / Fold change vs veh, SNHG1 /// SNORD22 /// SNORD25 /// SNORD26 /// SNORD27 /// SNORD28 /// SNORD29 /// SNORD31 / Fold change (Aza/veh), C12orf56 (ProbeSet 11735607_a_at) / Fold change (ACY-1035/veh), C12orf56 (ProbeSet 11735607_a_at) / Fold change (Aza/veh), FGFR1OP (ProbeSet 11751329_s_at) / Fold change (ACY-1035/veh), FGFR1OP (ProbeSet 11751329_s_at) / Fold change (Aza/veh), VPS36 (ProbeSet 11739960_a_at) / Fold change (ACY-1035/veh), VPS36 (ProbeSet 11739960_a_at) / RFU SYPL1 (11715823_x_at) / Fold change /veh SYPL1 (11715823_x_at) / RFU IGFBP7 (11715501_s_at) / Fold change /veh IGFBP7 (11715501_s_at) / RFU REEP3 (11722064_at) / Fold change /veh REEP3 (11722064_at) / RFU IGLL1 (11728026_x_at) / Fold change /veh IGLL1 (11728026_x_at): dose or concentration left out as unconfirmed
Settings: ProbeSet 11721521_at; LIST B

In the case of `Nc1ccc(-c2cccs2)cc1NC(=O)c1ccc2c(c1)cc(C1CC1)n2CCN1CCOCC1` [ACY-1035], the “RFU, ZDHHC17” value is reported as 49.20 RFU.
